From patent publication US20230212571A1, “COMPOSITIONS AND METHODS FOR DELIVERING POLYNUCLEOTIDES” (NeOnc Technologies, Inc., priority 2020, published 2023)

Key:
BEC [1] = test: ELISA of control BEC supernatants; assay type: cell-based, human
Excerpt: Human surgical specimens were obtained following written informed consent from patients in accordance with Declaration of Helsinki guidelines and the Institutional Review Board (HS-04B053), at Keck School of Medicine, USC. AVM-BECs were isolated from brain tissues of patients who underwent microsurgical AVM resection. Control BECs were isolated from the structurally normal […] of patients who underwent temporal lobectomy for intractable epilepsy. Endothelial cell (EC) isolation and culture were described^5,9. (Stapleton C J, Armstrong D L, Zidovetzki R, Liu C Y, Giannotta S L, Hofman F M. Thrombospondin-1 modulates the angiogenic phenotype of human cerebral arteriovenous malformation endothelial cells. Neurosurgery. 2011; 68(5):1342-1353) (Ferreira R, Santos T, Amar A, et al. Argonaute-2 promotes miR-18a entry in human brain endothelial cells. J Am Heart Assoc. 2014; 3(3):e000968) ECs were only used between passages 3-5. Experiments were performed under shear flow conditions (12 dyn/cm^2) to reproduce arterial flow^6. (Ferreira R, Santos T, Amar A, et al. MicroRNA-18a improves human cerebral arteriovenous malformation endothelial cell function. Stroke. 2014; 45(1):293-297). For hypoxic experiments, cells were cultured in a Galaxy 48R (Eppendorf) incubator at 3% O2. MicroRNAs were co-administered with Ago-2 to increase the cellular uptake of miR-18a^9 (Ferreira R, Santos T, Amar A, et al. Argonaute-2 promotes miR-18a entry in human brain endothelial cells. J Am Heart Assoc. 2014; 3(3):e000968) (FIG. 9). Methods regarding cell treatments and transfections were included in Data.
Small interfering RNA transfection was performed as previously described^5. Briefly, ECs were transfected with small interfering RNA (siRNA) against ID1 or PAI-1 (Thermo Fisher Scientific), or small interfering control (Santa Cruz Biotechnology) constructs using Lipofectamine RNAiMax (Thermo Fisher Scientific) per the manufacturer's instructions. Knockdown of ID1 or PAI-1 was confirmed by quantitative real-time polymerase chain reaction as described^6 (FIG. 19). The sequences of the forward and reverse primers for ID1 and PAI-1 were included in Table 2.
Plasmid constructs pcDNA3-ALK2^WT (Addgene #80870) and pcDNA3-ALK2^Q207D (Addgene #80871) were a gift from Aristidis Moustakas^7. (Meyer B, Schaller C, Frenkel C, Ebeling B, Schramm J. Distributions of local oxygen saturation and its response to changes of mean arterial blood pressure in the cerebral cortex adjacent to arteriovenous malformations. Stroke. 1999; 30(12):2623-2630) 10^4 AVM-BEC were seeded 24 h before transfection. The plasmid vector containing the 3′ untranslated region (3′UTR) of human BMP4, pRP [Exp]-Puro-CMV>Luciferase:{hBMP4_3′UTR}, was constructed and packaged by VectorBuilder. The vector ID is VB200205-1078zdv, which can be used to retrieve detailed information about the vector on vectorbuilder.com. Transient transfections were performed with Lipofectamine RNAiMax (Thermo Fisher Scientific) according to the manufacturer's instructions. After 4 h, medium was replaced by fresh medium containing microRNA.
MiR-18a (hsa-miR-18a-5p, 40 nM, Dharmacon) or a scramble microRNA (40 nM, Dharmacon) in nuclease-free water was added with argonaute 2 (Ago-2, 0.4 nM, Abcam) as the microRNA carrier and stabilizer^9. (Ferreira R, Santos T, Amar A, et al. Argonaute-2 promotes miR-18a entry in human brain endothelial cells. J Am Heart Assoc. 2014; 3(3):e000968). No transfection reagent was used with miR-18a or scramble microRNA treatments. Recombinant human TSP-1 (R&D Systems) stock solution was prepared in PBS and further diluted in culture medium to be used at a final concentration of 1000 ng/mL. Cells were treated during 24 h for mRNA and 48 h for protein expression studies. NEO100 (NeOnc Technologies) stock was prepared in DMSO and used immediately or stored at −20° C. […]

BEC [2] = test: Invasion assay, Matrigel-coated Boyden chamber, control BEC; assay type: cell-based, human; details: P>0.9999
Excerpt: The chemoinvasion assay was described^14. (Marín-Ramos N I, Thein T Z, Cho H-Y, et al. NEO212 inhibits migration and invasion of glioma stem cells. Mol Cancer Ther. 2018; 17(3):625-637). Pictures were captured using an Eclipse 80i microscope (Nikon), and cells counted with ImageJ Software (NIH).

[3] = control BEC supernatants, normoxia

hsa-miR-18a-5p (UAGGUGCAUCUAGUGCAGAUAG; chemistry not given here; listed as Homo sapiens) [small non-coding RNA molecule involved in post-transcriptional regulation of gene expression; Dharmacon]
VEGF secretion (ELISA) (BEC [1]; BEC transfected with ALK2, P>0.9999): No significant changes | levels of secreted PAI-1 (BEC [1]; [3]): without affecting control BEC | levels of secreted VEGF (BEC [1]; [3]): without affecting control BEC | levels of secreted VEGF (BEC [1]; control BEC transfected with siCTL): without affecting control BEC | invasiveness (BEC [2]): without affecting control BEC
